From ChEMBL document CHEMBL1132059, “Antitumor agents 187: synthesis and cytotoxicity of substituted 8,8-dimethyl-2H,8H-pyrano[6,5-h]quinoline-2-one and related compounds” (1999) come the findings set out here.

Converted amounts (≈) assume the structure as drawn. The source made the active and inactive calls. No cut-off for these calls is given here.

One test has as its system 1A9. In words: Cytotoxic activity against human ovarian cancer (1A9) cell line. Format: functional. To be noted: read-out: ED50 (the source's name).
The subject of a further test is A549. Description: Cytotoxic activity against human lung carcinoma (A-549) cell line. The format is functional. To be noted: read-out: ED50 (the source's name).
Test [1] concerns CAKI-1. In words: Cytotoxic activity against human renal cancer (CAKI-1) cell line; NA=Not active. Format: functional, cell-based.
Test [2] concerns HCT-8. Description: Cytotoxic activity against human ileocecal carcinoma (HCT-8) cell line. The following applies: read-out: ED50 (the source's name). Format: functional.
Another test has as its system KB. Description: Cytotoxic activity against human epidermoid carcinoma of the nasopharynx (KB) cell line. The format is functional. To be noted: read-out: ED50 (the source's name).
A further test deals with MCF7. Description: Cytotoxic activity against human breast cancer (MCF-7) cell line. Format: functional. To be noted: read-out: ED50 (the source's name).
Test [3] deals with CAKI-1. In words: Cytotoxic activity against human renal cancer (CAKI-1) cell line. Format: functional. To be noted: read-out: ED50 (the source's name).
Test [4] has as its system HCT-8. Description: Cytotoxic activity against human ileocecal carcinoma (HCT-8) cell line; NA=Not active. The format is functional, cell-based.
In test [5] the test system is CAKI-1. Description: Compound was tested for in vitro growth inhibition of human […] cancer CAKI-1 cell line. Format: functional.
A further test concerns MDA-MB-435. In words: Compound was tested for in vitro growth inhibition of human breast cancer MDA-MB-435 cell line. The format is functional.
A further test concerns NCI-H226. In words: Compound was tested for in vitro growth inhibition of human non-small cell lung cancer cell line NCI-H226. The format is functional.
In the next test the test system is OVCAR-3. Description: Compound was tested for in vitro growth inhibition of human ovarian cancer OVCAR-3 cell line. Format: functional.
The test system of a further test is SF-295. In words: Compound was tested for in vitro growth inhibition of human […] SF-295 cell line. Format: functional.
A further test deals with SK-MEL-28. Description: Compound was tested for in vitro growth inhibition of human melanoma SK-MEL-28 cell line. Format: functional.
In a further test the test system is PD-145. In words: Compound was tested for in vitro growth inhibition of human prostate cancer PD-145 cell line. The format is functional.
Another test relates to HL-60. Description: Compound was tested for in vitro growth inhibition of human leukemia cell line HL60. The format is functional.
The subject of the next test is COLO 205. In words: Compound was tested for in vitro growth inhibition of human colon cancer COLO 205 cell line. Format: functional.
A further test deals with HCT-116. In words: Compound was tested for in vitro growth inhibition of human colon cancer HCT116 cell line. Format: functional.

For the compound `Cc1cc(S)nc2c3c(ccc12)OC(C)(C)C=C3`, the EC50 in the test on 1A9 was determined as 12 µg/mL (≈ 46.6 µM); with A549, 30.3 µg/mL (≈ 118 µM); with HCT-8 [2], 28.8 µg/mL (≈ 112 µM); in the test on KB, 23 µg/mL (≈ 89.4 µM); in the test with MCF7, 13.8 µg/mL (≈ 53.6 µM). In addition, in the test with CAKI-1 [1], the ED50 result is “inactive”.

Take `Cc1c(O)nc2c3c(ccc2c1C)OC(C)(C)C=C3`: the EC50 with A549 was 25 µg/mL (≈ 97.9 µM); in the test on CAKI-1 [3], 35.5 µg/mL (≈ 139 µM); with HCT-8 [2], 32 µg/mL (≈ 125 µM); in the test with KB it was 23 µg/mL (≈ 90.1 µM); in the test on MCF7 it was 19 µg/mL (≈ 74.4 µM).

Take `CC1(C)C=Cc2c(ccc3c(-c4ccccc4)cc(O)nc23)O1`: the EC50 is 10 µg/mL (≈ 33 µM) with 1A9; 36.3 µg/mL (≈ 120 µM) with A549; above 40 µg/mL with CAKI-1 [3]; 28 µg/mL (≈ 92.3 µM) in the test on HCT-8 [2]; above 40 µg/mL with KB; 30 µg/mL (≈ 98.9 µM) in the test with MCF7.

On to `CC1(C)C=Cc2c(ccc3ccc(O)nc23)O1`, for which the EC50 in the test with 1A9 is 5.8 µg/mL (≈ 25.5 µM); in the test on A549, 18 µg/mL (≈ 79.2 µM); with CAKI-1 [3], above 40 µg/mL; with HCT-8 [2], 19.3 µg/mL (≈ 84.9 µM); with KB it was 13.1 µg/mL (≈ 57.6 µM); in the test on MCF7, 14.7 µg/mL (≈ 64.7 µM).

In the case of `CCCc1cc(O)nc2c3c(ccc12)OC(C)(C)C=C3`, the EC50 with 1A9, in the test with A549, in the test with KB and with MCF7 was above 40 µg/mL in each case. The ED50 result in the test with CAKI-1 [1] and in the test with HCT-8 [4] was “inactive” each time.

For the compound `Cc1cc(O)nc2c3c(ccc12)OC(C)(C)C=C3`, the EC50 turned out to be 2.2 µg/mL (≈ 9.12 µM) with A549; 2.5 µg/mL (≈ 10.4 µM) with CAKI-1 [3]; 1.7 µg/mL (≈ 7.05 µM) in the test on HCT-8 [2]; 1.6 µg/mL (≈ 6.63 µM) with KB; 1.7 µg/mL (≈ 7.05 µM) with MCF7. The GI50 (as a rule, the concentration giving 50% growth inhibition) is 6.17 µM in the test with CAKI-1 [5]; 1.74 µM in the test on MDA-MB-435; above 100 µM in the test with NCI-H226; 6.03 µM in the test on OVCAR-3; 30.2 µM in the test with SF-295; above 100 µM in the test on SK-MEL-28. Besides, the GI50 in the test on PD-145 is 3.63 µM; in the test on HL-60 it was 0.427 µM; with COLO 205, 2.75 µM; in the test with HCT-116 it was 4.9 µM.

With `Cc1cc2c(C)c(C)c(O)nc2c2c1OC(C)(C)C=C2`, the EC50 with A549 is 41 µg/mL (≈ 152 µM); with CAKI-1 [3] it was 43 µg/mL (≈ 160 µM); with HCT-8 [2], 41 µg/mL (≈ 152 µM); with KB, 37 µg/mL (≈ 137 µM); with MCF7, 38 µg/mL (≈ 141 µM).

As for `Cc1cc(=O)n(C(=O)OC(C)(C)C)c2c3c(ccc12)OC(C)(C)C=C3`, the EC50 was determined as 4.3 µg/mL (≈ 12.6 µM) in the test with A549; 4.5 µg/mL (≈ 13.2 µM) with CAKI-1 [3]; 3.6 µg/mL (≈ 10.5 µM) in the test with HCT-8 [2]; 2.5 µg/mL (≈ 7.32 µM) with KB; 2.4 µg/mL (≈ 7.03 µM) with MCF7.
